Where two headings read alike, the source gives them in different places.
Columns and labels:
hERG [1] = molecular target: T1, hERG (Homo sapiens (Human), UniProt Q12809); test: hERG IC50; conditions: read-out: hERG IC50
BRCA2 (−/−) DLD1 cells = test: PARP proliferation assay (7 day compound dosing), BRCA2 (−/−) DLD1; type: cell-based; conditions: read-out: BRCA2 −/− DLD-1 prolif. 7 d IC50
Description: (§1) DLD1 and BRCA2 (−/−) DLD1 cells were harvested to a density of 5000 cells/ml and 2.5E4 cells/ml respectively in complete media, 40 μL/well seeded into 384-well plates (Greiner, Kremsmunster, Austria; 781090) using a Multidrop Combi then incubated at 37° C., 5% CO2 overnight. Next day (Day 1) using a Multidrop Combi add sytox green (5ul, 2 uM) and saponin (10 ul, 0.25% stock) to a day 0 plate, seal the plate using a black adhesive lid and incubate for >3 h at it. Cells were imaged using Cell Insight (Thermo Fisher) fitted with a 4x objective. Test compounds are added using an Echo 555 and placed in incubator maintained at 37° C., 5% CO2 and incubated for 7 days. On Day 8 add sytox green (5ul, 2 uM) and then saponin (10 ul, 0.25% stock) to plates, seal the plate using a black adhesive lid and incubate for >3 h at it. Read all cells on the Cell Insight with 4× Objective. The rate of proliferation is determined in Genedata by assessing the total cell number output from the Cell Insight for Day 0 and Day 8 plates.

PARP5a = PARP5a (Homo sapiens (Human), UniProt O95271); test: PARP fluorescence anisotropy binding assay, PARP5a
Chain of PARP5a (O95271 1112-1317): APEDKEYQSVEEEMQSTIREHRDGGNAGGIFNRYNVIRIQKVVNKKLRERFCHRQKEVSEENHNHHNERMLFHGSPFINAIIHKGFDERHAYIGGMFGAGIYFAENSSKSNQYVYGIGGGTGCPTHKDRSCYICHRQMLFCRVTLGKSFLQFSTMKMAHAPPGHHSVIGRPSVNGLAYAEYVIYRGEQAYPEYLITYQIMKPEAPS
Description: Recombinant PARP5a binding domain was diluted to 160 nM with 50 mM Tris pH 8, 0.001% Triton X100, 10 mM MgCl2, 150 mM NaCl and incubated for four hours with an equivalent volume of 6 nM fluorescent probe diluted with 50 mM Tris pH 8, 0.001% Triton X100, 10 mM MgCl2, 150 mM NaCl. The final DMSO concentration of the probe was kept below 1% (v/v).

[2] = system: MDCKII cells expressing MDR1 and BCRP; test: In vitro human transporter efflux (MDCK-MDR1-BCRP); conditions: Papp(B to A)/Papp(A to B), 90-min incubation
Description: (§2) MDCKII cells expressing MDR1 and BCRP were seeded onto polyethylene membranes in 96-well Transwell insert systems at a density to form a confluent cell monolayer. […] The final percent volume of the organic solvent was less than 1%. Permeation of the test compounds from A to B direction and from B to A direction was determined over a 90-min incubation at 37° C. and 5% CO2 with a relative humidity of 95%. At the end of the incubation, samples from the apical and basolateral side were taken and then precipitated with cold acetonitrile containing internal standard. After centrifugation at 4000 rpm, the supernatant was diluted with 0.1% formic acid aqueous solution and quantified by LC-MS/MS. The integrity of the cell monolayers was confirmed by using the marker Lucifer yellow.
(§3) The permeability coefficient (1×10-6 cm/s) was calculated using the following equation
(§4) (1) The Efflux Ratio was Calculated Using the Following Equation
Efflux ratio=Papp(B to A)/Papp(A to B)
(§5) (2) where dCr/dt is the cumulative concentration of the compound in the receiver chamber as a function of time (in μM/s); Vr is the solution volume in the receiver chamber (0.1 ml on the apical side and 0.3 ml on the basolateral side); A is the surface area for the transport, that is, 0.11 cm2 for the area of the monolayer; and C0 is the initial concentration in the donor chamber (in μM).

PARP1 = PARP1 (Homo sapiens (Human), UniProt P09874); test: PARP fluorescence anisotropy binding assay, PARP1
Chain of PARP1 (P09874 whole entry): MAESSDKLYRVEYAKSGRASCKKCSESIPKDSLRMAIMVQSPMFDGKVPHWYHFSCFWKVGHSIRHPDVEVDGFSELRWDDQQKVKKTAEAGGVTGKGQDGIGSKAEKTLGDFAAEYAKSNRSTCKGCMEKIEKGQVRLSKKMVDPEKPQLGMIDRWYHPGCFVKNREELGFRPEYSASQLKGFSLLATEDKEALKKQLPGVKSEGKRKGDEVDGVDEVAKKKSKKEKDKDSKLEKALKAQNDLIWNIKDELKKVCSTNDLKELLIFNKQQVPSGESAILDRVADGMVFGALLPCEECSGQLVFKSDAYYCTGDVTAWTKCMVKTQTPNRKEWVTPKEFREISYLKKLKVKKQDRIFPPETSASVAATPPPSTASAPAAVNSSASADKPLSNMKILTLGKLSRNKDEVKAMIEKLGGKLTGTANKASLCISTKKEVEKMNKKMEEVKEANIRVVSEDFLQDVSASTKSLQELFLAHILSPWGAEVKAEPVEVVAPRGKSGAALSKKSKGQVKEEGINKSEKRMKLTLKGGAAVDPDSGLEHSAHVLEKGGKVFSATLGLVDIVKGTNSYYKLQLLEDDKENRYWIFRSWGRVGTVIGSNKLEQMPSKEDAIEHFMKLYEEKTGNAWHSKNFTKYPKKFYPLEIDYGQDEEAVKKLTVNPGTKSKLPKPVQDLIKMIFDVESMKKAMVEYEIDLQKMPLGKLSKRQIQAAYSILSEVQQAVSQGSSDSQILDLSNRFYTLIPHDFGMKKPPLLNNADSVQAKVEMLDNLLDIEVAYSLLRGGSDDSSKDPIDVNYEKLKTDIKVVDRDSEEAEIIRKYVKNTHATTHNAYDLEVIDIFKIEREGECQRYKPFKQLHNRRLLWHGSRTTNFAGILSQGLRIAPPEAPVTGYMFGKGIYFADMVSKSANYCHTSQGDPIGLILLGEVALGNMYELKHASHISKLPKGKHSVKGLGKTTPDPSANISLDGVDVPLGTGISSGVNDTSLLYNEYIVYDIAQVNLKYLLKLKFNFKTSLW
Description: Recombinant full length 6HIS tagged PARP1 protein was diluted to 6 nM with 50 mM Tris pH 8, 0.001% Triton X100, 10 mM MgCl2, 150 mM NaCl and incubated for four hours with an equivalent volume of 2 nM fluorescent probe diluted with 50 mM Tris pH 8, 0.001% Triton X100, 10 mM MgCl2, 150 mM NaCl. The final DMSO concentration of the probe was kept below 1% (v/v).

PARP6 = PARP6 (Homo sapiens (Human), UniProt Q2NL67); test: PARP fluorescence anisotropy binding assay, PARP6
Chain of PARP6 (Q2NL67 whole entry): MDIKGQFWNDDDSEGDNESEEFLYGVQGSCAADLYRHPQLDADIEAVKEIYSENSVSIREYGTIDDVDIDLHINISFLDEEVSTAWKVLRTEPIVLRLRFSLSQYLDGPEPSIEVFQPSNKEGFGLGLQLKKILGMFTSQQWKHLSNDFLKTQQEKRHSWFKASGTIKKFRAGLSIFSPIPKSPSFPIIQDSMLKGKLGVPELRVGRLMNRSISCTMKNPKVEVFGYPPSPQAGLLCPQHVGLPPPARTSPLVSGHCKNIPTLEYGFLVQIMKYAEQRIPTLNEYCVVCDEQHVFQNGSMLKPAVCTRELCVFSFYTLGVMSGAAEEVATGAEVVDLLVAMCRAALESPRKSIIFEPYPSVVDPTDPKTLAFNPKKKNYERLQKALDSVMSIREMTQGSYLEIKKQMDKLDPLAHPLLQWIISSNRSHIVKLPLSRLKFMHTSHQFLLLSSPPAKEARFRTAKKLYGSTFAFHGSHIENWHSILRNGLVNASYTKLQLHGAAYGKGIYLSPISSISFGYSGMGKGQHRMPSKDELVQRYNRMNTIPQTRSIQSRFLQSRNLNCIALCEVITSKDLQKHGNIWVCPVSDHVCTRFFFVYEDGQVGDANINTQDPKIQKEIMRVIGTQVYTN
Description: Recombinant full length GST tagged PARP6 protein was diluted to 160 nM with 50 mM Tris pH 8, 0.001% Triton X100, 10 mM MgCl2, 150 mM NaCl and incubated for four hours with an equivalent volume of 6 nM fluorescent probe diluted with 50 mM Tris pH 8, 0.001% Triton X100, 10 mM MgCI2, 150 mM NaCl. The final DMSO concentration of the probe was kept below 1% (v/v).
Fluorescence anisotropy of the probe when bound to the proteins was measured using a BMG Pherastar FSX® in the presence of test compounds or solvent control and the effect on anisotropy determined. % inhibition values for different test compound concentrations were calculated and fitted to a four parameter logistic plot in order to determine the IC50 value. Where necessary, the compound K, can be determined from the IC50 value using a Munson Rodbard equation defined in Anal Biochem. 1980 Sep. 1; 107(1):220-39 and is based on the known KD of the probe binding to the relevant PARP protein

PARP3 = PARP3 (Homo sapiens (Human), UniProt Q9Y6F1); test: PARP fluorescence anisotropy binding assay, PARP3
Chain of PARP3 (Q9Y6F1 whole entry): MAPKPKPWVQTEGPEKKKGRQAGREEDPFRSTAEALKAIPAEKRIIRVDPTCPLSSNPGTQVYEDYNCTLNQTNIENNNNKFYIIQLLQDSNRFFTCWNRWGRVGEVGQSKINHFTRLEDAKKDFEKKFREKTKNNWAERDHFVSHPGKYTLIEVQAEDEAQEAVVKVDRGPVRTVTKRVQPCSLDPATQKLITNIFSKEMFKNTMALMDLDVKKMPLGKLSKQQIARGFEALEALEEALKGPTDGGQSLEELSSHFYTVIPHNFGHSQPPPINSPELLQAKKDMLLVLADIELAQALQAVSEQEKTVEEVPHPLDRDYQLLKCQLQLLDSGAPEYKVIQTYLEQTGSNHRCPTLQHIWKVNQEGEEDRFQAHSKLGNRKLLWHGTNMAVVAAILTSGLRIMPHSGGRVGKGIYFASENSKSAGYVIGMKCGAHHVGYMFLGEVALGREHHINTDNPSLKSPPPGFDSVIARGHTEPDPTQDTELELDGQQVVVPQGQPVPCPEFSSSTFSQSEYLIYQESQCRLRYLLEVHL
Description: Recombinant full length PARP3 protein was diluted to 100 nM with 50 mM Tris pH 8, 0.001% Triton X100, 10 mM MgCl2, 150 mM NaCl and incubated for four hours with an equivalent volume of 6 nM fluorescent probe diluted with 50 mM Tris pH 8, 0.001% Triton X100, 10 mM MgCl2, 150 mM NaCl. The final DMSO concentration of the probe was kept below 1% (v/v).

hERG [3] = molecular target: T1, hERG
PARP2 = PARP2 (Homo sapiens (Human), UniProt Q9UGN5); test: PARP fluorescence anisotropy binding assay, PARP2
Chain of PARP2 (Q9UGN5 whole entry): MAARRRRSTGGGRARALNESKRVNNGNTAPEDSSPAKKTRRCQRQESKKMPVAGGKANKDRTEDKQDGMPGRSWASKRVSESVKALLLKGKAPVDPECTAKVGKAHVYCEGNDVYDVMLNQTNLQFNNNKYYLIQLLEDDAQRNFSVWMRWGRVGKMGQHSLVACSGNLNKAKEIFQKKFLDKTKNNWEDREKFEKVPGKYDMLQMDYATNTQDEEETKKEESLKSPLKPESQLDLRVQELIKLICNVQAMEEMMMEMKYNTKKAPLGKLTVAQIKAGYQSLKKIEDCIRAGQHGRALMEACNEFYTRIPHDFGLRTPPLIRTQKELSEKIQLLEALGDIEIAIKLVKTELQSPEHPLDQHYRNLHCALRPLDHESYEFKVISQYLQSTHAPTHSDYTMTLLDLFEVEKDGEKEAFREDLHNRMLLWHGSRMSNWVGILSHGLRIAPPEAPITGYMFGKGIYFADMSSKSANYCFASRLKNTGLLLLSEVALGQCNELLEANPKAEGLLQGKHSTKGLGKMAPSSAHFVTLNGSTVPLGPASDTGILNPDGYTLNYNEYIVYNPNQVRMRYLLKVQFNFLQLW
In short: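 Recombinant full-length human PARP2 (6 nM before mixing) incubated 4 h with equal volume of 2 nM fluorescent probe in 50 mM Tris pH 8, 10 mM MgCl2, 150 mM NaCl, 0.001% Triton X100. Compound displacement measured as change in probe fluorescence anisotropy; IC50 from four-parameter logistic fit.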

[4] = system: MDCKII cells expressing MDR1 and BCRP
Description: as §2, §3, §4
Efflux ratio=Papp(B to A)/Papp(A to B)
as §5

DLD1 cells = test: PARP proliferation assay (7 day compound dosing), WT DLD1; type: cell-based; conditions: read-out: WT DLD-1 prolif. 7 d IC50
Description: as §1

[5] = 30 mg/m^2 per day, days 1, 2 and 3 every 21 days, in combination with radiation therapy; cited from earlier work

T1 sequence (Q12809 whole entry): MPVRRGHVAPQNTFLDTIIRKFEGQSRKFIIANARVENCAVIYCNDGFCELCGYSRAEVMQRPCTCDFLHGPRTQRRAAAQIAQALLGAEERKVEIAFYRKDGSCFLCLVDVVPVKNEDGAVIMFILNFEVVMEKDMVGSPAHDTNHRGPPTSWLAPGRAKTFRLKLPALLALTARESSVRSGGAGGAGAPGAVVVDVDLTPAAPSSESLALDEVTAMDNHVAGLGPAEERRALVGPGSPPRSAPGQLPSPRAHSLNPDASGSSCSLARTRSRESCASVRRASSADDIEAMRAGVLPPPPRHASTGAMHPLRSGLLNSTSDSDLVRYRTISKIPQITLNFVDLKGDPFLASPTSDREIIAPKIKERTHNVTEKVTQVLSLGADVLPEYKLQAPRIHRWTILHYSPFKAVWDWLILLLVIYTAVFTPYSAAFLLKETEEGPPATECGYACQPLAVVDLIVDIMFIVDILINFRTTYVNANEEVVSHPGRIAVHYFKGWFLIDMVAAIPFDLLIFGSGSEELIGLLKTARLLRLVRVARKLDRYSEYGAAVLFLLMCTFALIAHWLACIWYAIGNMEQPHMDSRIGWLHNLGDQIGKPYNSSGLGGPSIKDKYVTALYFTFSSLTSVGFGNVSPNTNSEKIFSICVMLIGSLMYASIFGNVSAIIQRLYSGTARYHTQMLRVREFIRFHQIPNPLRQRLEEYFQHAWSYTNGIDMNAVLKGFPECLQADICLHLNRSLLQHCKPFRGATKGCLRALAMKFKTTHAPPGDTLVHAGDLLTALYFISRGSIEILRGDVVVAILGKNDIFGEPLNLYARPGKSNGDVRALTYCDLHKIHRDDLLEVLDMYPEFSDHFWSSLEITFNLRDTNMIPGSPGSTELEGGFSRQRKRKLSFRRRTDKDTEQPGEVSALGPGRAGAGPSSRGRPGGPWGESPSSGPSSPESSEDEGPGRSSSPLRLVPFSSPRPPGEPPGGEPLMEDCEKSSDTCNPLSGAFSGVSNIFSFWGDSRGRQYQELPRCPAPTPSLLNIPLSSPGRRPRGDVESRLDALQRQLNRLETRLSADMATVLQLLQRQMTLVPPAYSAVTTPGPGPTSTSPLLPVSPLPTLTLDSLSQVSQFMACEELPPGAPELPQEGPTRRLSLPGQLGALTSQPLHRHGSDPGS

Structure (SMILES) | IC50 (hERG [1]) [µM] | IC50 (BRCA2 (−/−) DLD1 cells) [µM] | IC50 (PARP5a) [µM] | MDCK-MDR1-BCRP Efflux Ratio [2] | IC50 (PARP1) [µM] | IC50 (PARP6) [µM] | IC50 (PARP3) [µM] | IC50 (hERG [3]) [µM] | IC50 (PARP2) [µM] | MDCK-MDR1-BCRP Efflux Ratio [4] | IC50 (DLD1 cells) [µM] | safety and tolerability [5]
CNC(=O)c1ccc(N2CCN(Cc3ccc4nc([C@H](C)F)c(=O)[nH]c4c3F)CC2)c(F)n1 (single isomer, unassigned) [Example 12, 6-fluoro-5-[4-[[5-fluoro-2-[(1S OR 1R)-1-fluoroethyl]-3-oxo-4H-quinoxalin-6-yl]methyl]piperazin-1-yl]-N-methyl-pyridine-2-carboxamide] | > 40 | 0.008 | > 100 | 4.2 | 0.015 | > 100 | 85 | – | – | – | – | –
CNC(=O)c1ccc(N2CCN(Cc3ccc4nc([C@H](C)F)c(=O)[nH]c4c3F)CC2)c(F)n1 (single isomer, unassigned) [Example 13, 6-fluoro-5-[4-[[5-fluoro-2-[(1S OR 1R)-1-fluoroethyl]-3-oxo-4H-quinoxalin-6-yl]methyl]piperazin-1-yl]-N-methyl-pyridine-2-carboxamide] | – | 0.019 | > 100 | – | 0.009 | > 100 | 62 | > 40 | > 100 | 3.0 | 22 | –
CNC(=O)c1ccc(N2CCN(Cc3ccc4nc(C(C)F)c(=O)[nH]c4c3F)CC2)c(C)n1 (single isomer, unassigned) [Example 14, 5-[4-[[5-fluoro-2-[(1S OR 1R)-1-fluoroethyl]-3-oxo-4H-quinoxalin-6-yl]methyl]piperazin-1-yl]-N,6-dimethyl-pyridine-2-carboxamide] | > 40 | 0.015 | > 100 | 3.7 | 0.013 | > 100 | 52 | – | > 83 | – | – | –
CNC(=O)c1ccc(N2CCN(Cc3ccc4nc(C(C)F)c(=O)[nH]c4c3F)CC2)c(C)n1 (single isomer, unassigned) [Example 15, 5-[4-[[5-fluoro-2-[(1S OR 1R)-1-fluoroethyl]-3-oxo-4H-quinoxalin-6-yl]methyl]piperazin-1-yl]-N,6-dimethyl-pyridine-2-carboxamide] | > 38 | 0.014 | > 100 | 3.7 | 0.012 | > 100 | 43 | – | > 100 | – | – | –
O[C@H]([C@H](O)[C@@H]1CO1)[C@H]1CO1 [VAL-083, dianhydrogalactitol] | – | – | – | – | – | – | – | – | – | – | – | generally safe and well tolerated
